Paper PMC11769294, “(E)-1-(3-(3-Hydroxy-4-Methoxyphenyl)-1-(3,4,5-Trimethoxyphenyl)allyl)-1H-1,2,4-Triazole and Related Compounds: Their Synthesis and Biological Evaluation as Novel Antimitotic Agents Targeting Breast Cancer” (Pharmaceuticals, 2025)

Legend:
[1] = system: MCF-7 breast cancer cells; assay: Annexin V/PI apoptotic assay; type: cell-based, human
Protocol: (§1) Apoptotic cell death was monitored by flow cytometry using Annexin V and propidium iodide (PI) to determine the Annexin V and PI negative cells (Q4, healthy cells), Annexin V positive and PI negative cells (Q3, early apoptosis), Annexin V and PI positive cells (Q2, late apoptosis), and Annexin V negative and PI-positive cells (Q1, necrosis) cells. MCF-7 and MDA-MB-231 cells for this experiment were seeded in 6-well plates at a density of 1 × 10^5 cells/mL (3 mL). Following the protocol previously described, the cells were treated at 37 °C with either vehicle (0.1% (v/v) EtOH), phenstatin 19c, (0.1 μM and 0.5 μM), or 22b (0.1 μM, 0.5 μM and 1 μM) at the 48 h time point. Cells were harvested by centrifugation at 400× g using a temperature-controlled Sorvall centrifuge and then prepared for flow cytometric analysis. Cells were washed in Annexin V Binding Buffer 1X (binding buffer: 0.1 M 4-(2-hydroxyethyl)-1-piperazineethanesulfonic acid (HEPES), pH 7.4; 1.4 M NaCl; 25 mM CaCl2 diluted in dH2O, 0.5 mL), and incubated in the dark for 30 min on ice in Annexin V-containing binding buffer (1:100), 50 μL protected from light. Cells were then washed once in binding buffer and then re-suspended in a PI-containing binding buffer (1:1,000) (0.5 μg/mL, 500 μL) and immediately analyzed within 1 h to determine the populations produced. BD Accuri flow cytometer (BD Biosciences, 2350 Qume Dr, San Jose, CA, USA) and GraphPad Prism software were used for the analysis of the data (GraphPad Software, Inc., 2365 Northside Dr., Suite 560, San Diego, CA, USA).
(§2) Figure 11 Compound 22b induced apoptosis in (A) MCF-7 breast cancer cells and (B) MDA-MB-231 breast cancer cells. MCF-7 breast cancer cells (A) and MDA-MB-23 breast cancer cells (B) were treated with 22b (0.1, 0.5, and 1.0 μM) or phenstatin (19c) (0.1 μM and 0.5 μM) or control vehicle (0.1% ethanol (v/v)). The data shown for the control vehicle and phenstatin are as we previously reported. The apoptotic cell content was determined by staining with Annexin V-FITC and PI. […]

[2] = system: MDA-MB-231 breast cancer cells; assay: Annexin V/PI apoptotic assay; type: cell-based, human
Protocol: as §1, §2

[3] = system: MCF-7 cells; assay: Cell cycle analysis (PI, flow cytometry); type: cell-based, human; details: 1 μM
Protocol: Figure 10 Compound (A) 22b, (B) phenstatin 19c induced apoptosis in a time-dependent manner in MCF-7 cells. Cells were treated with either vehicle control [0.1% ethanol (v/v)] or compound 22b or phenstatin 19c (1 μM) for 24, 48, and 72 h). The data shown for the control vehicle and phenstatin are as we previously reported. Cells were fixed and stained with PI, followed by analysis using flow cytometry. Cell cycle analysis was performed on histograms of gated counts per DNA area (FL2-A). The number of cells with <2 N (sub-G1), 2 N (G0G1), and 4 N (G2/M) DNA content was determined with CellQuest software, BD CellQuest Pro. Values are represented as the mean ± SEM for three separate experiments. Two-way ANOVA (Bonferroni post-test) was used to test for statistical significance (*, p < 0.05; **, p < 0.01; ***, p < 0.001).
Cells (MCF-7 and MDA-MD 231) were seeded at a density of 1 × 10^5 cells/well in 6-well plates (volume of 3 mL per well) and treated with selected compound 22b and phenstatin (19c) (1 μM), as previously reported. The time points used were 24, 48, or 72 h. Ethanol was used as the vehicle. At each time point, the media was removed and then the well was carefully rinsed with PBS and TrypLE™ Express enzyme (200 µL) was added to detach the adherent cells. The cells were collected by trypsinization and were then centrifuged at 800× g for 15 min. Cells were washed with ice-cold phosphate-buffered saline (PBS) ×2 and fixed in ice-cold 70% ethanol for 14 h at −20 °C. Fixed cells were centrifuged at 800× g for 15 min. The samples were then treated with 12.5 µL of DNase-free RNAse A (10 mg/mL) together with […] of PI (1 mg/mL) at 37 °C for 30 min, vortexed, and wrapped in tin foil. The DNA content of cells (10,000 cells/selected experimental group) was determined by flow cytometry at 488 nm with a FACSCalibur flow cytometer (BD Biosciences, San Jose, CA, USA) using the CellQuest Software (Becton-Dickinson, East Rutherford, NJ, USA). Each experiment was performed on three separate occasions.

[4] = biological target: CYP1A1 (Homo sapiens, UniProt P04798); assay: Cytochrome P450 assay (DBF fluorescence)
Chain of CYP1A1 (P04798 whole entry): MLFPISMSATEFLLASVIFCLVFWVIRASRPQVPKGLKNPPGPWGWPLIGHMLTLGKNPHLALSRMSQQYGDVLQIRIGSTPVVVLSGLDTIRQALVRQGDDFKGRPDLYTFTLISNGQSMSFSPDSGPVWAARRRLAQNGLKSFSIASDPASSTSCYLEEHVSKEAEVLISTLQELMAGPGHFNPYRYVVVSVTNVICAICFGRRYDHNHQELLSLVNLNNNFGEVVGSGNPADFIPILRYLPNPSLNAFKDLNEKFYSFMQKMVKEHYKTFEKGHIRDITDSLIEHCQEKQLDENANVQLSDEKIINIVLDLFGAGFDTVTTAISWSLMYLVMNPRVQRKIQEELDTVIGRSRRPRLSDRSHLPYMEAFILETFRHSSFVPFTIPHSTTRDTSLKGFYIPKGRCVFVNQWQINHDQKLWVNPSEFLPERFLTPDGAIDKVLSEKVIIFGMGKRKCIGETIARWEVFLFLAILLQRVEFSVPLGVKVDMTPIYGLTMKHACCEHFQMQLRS

COc1ccc(/C=C/C(c2cc(OC)c(OC)c(OC)c2)n2cncn2)cc1O (stereo not drawn) [Compound 22b, (E)-5-(3-(1H-1,2,4-Triazol-1-yl)-3-(3,4,5-trimethoxyphenyl)prop-1-en-1-yl)-2-methoxyphenol]
cells undergoing apoptosis (early + late) ([1]; 0.5 μM): 21%
cells undergoing apoptosis (early + late) ([1]; 1 μM): 33%
viability at 0.1 µM ([1]; Homo sapiens, MCF7, 0.1 μM, Figure 11A): 82.8%
viability at 0.5 µM ([1]; Homo sapiens, MCF7, 0.5 μM, Figure 11A): 78.1%
viability at 1 µM ([1]; Homo sapiens, MCF7, 1 μM, Figure 11A): 60.6%
cells in apoptosis ([2]; 0.1 μM): 5.9%
cells in apoptosis ([2]; 0.5 μM): 6.5%
cells in apoptosis ([2]; 1.0 μM): 20.8%
viability at 0.1 µM ([2]; Homo sapiens, 0.1 μM, Figure 11B): 92.8%
viability at 0.5 µM ([2]; Homo sapiens, 0.5 μM, Figure 11B): 92.1%
viability at 1 µM ([2]; Homo sapiens, 1 μM, Figure 11B): 77.6%
cells in G2/M phase ([3]; 24 h): 35%
cells in apoptosis (sub-G1) ([3]; 24 h): 14%
cells in G2/M phase ([3]; 48 h): 26%
cells in apoptosis (sub-G1) ([3]; 48 h): 23%
cells in G2/M phase ([3]; 72 h): 23%
cells in apoptosis (sub-G1) ([3]; 72 h): 31%
IC50 [4]: > 53 µM
